Measured values published in ChEMBL document CHEMBL1142108, “Carbamidocyclophanes A-E, chlorinated paracyclophanes with cytotoxic and antibiotic activity from the Vietnamese cyanobacterium Nostoc sp” (J Nat Prod, 2007).
Values after ≈ are worked out from the molar mass of the structure shown.

Key:
Staphylococcus aureus = assay: Antibacterial activity against Staphylococcus aureus ATCC 6538; assay type: functional
[1] = Cytotoxicity against human F1 cells after 48 hrs; assay type: cell-based; settings: F1, 48 h
MCF7 = assay: Cytotoxicity against MCF7 cells after 48 hrs; assay type: cell-based; settings: Homo sapiens, MCF7, 48 h

| SMILES | MIC (Staphylococcus aureus) | IC50 [1] | IC50 (MCF7) |
| --- | --- | --- | --- |
| C[C@H]1CCCCC(CCCC(Cl)Cl)c2c(O)cc(cc2O)[C@H](OC(N)=O)[C@@H](C)CCCCC(CCCC(Cl)Cl)c2c(O)cc(cc2O)[C@@H]1OC(N)=O (some centres undefined) [CARBAMIDOCYCLOPHANE A] | 100 µM (≈ 80.9 µg/mL) | 3.3 µM | 860 nM |
| C[C@H]1CCCCC(CCCCCl)c2c(O)cc(cc2O)[C@H](OC(N)=O)[C@@H](C)CCCCC(CCCC(Cl)Cl)c2c(O)cc(cc2O)[C@@H]1OC(N)=O (some centres undefined) [CARBAMIDOCYCLOPHANE B] | 40 µM (≈ 31 µg/mL) | 4.2 µM | 1800 nM |
| CCCCC1CCCC[C@H](C)[C@@H](OC(N)=O)c2cc(O)c(c(O)c2)C(CCCC(Cl)Cl)CCCC[C@H](C)[C@@H](OC(N)=O)c2cc(O)c1c(O)c2 (some centres undefined) [CARBAMIDOCYCLOPHANE C] | 60 µM (≈ 44.4 µg/mL) | 5.1 µM | 2200 nM |
